Target: T1, STK33 (Homo sapiens, UniProt Q9BYT3)
T1 construct: purchased Thermo Fisher Scientific (Life Technologies) SelectScreen
Assay: SelectScreen LanthaScreen
Type: binding
Conditions: read-out: % displacement
In short: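 NU5455 was profiled across the SelectScreen Broad panel of kinase activity and binding assays. Z'LYTE reactions such as CSF1R ran at apparent Km ATP, while the Adapta CAMK1 assay used ATP listed as 10. Values are given as percent.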

T1 sequence (Q9BYT3 whole entry): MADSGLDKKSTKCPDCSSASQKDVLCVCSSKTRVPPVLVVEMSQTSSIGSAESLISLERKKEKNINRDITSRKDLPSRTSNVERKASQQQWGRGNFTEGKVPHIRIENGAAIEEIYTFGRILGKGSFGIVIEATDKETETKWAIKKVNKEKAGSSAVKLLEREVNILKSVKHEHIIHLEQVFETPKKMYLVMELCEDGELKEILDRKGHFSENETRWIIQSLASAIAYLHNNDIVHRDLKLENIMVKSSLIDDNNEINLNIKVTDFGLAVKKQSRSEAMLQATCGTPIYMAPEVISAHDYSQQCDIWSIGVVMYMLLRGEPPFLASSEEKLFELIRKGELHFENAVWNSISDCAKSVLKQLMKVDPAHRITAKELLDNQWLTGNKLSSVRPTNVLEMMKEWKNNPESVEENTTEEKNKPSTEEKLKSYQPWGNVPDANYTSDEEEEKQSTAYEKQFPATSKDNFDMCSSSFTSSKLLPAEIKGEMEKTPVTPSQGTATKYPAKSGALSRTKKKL

CN(C(=O)CN1CCOCC1)c1ccc2sc3c(-c4cccc5c(=O)cc(N6CC7CCC(C6)O7)oc45)cccc3c2c1 [NU5455]
inhibition at 1 µM: 4.7%
